From publication PMC6302903, “Protein and Chemical Determinants of BL-1249 Action and Selectivity for K2P Channels” (ACS Chemical Neuroscience, 2018) come the findings set out here.

Molecules are shown by their SMILES.

Holding throughout (type): cell-based
One assay concerns the target T1, TREK-1/AAK M4-C (Mus musculus, UniProt O88454+P97438).
T1 construct: Y272 (TREK-1/AAK M4-C); expressed in transfected cells; host or cells: Xenopus laevis oocytes, mRNA injected; chimera built by Gibson assembly
T1 sequence (P97438+O88454 with tags, fused parts or gaps P97438:V273L/P97438:V280F/P97438:A287S/P97438:S290T/P97438:M291T/P97438:D294N): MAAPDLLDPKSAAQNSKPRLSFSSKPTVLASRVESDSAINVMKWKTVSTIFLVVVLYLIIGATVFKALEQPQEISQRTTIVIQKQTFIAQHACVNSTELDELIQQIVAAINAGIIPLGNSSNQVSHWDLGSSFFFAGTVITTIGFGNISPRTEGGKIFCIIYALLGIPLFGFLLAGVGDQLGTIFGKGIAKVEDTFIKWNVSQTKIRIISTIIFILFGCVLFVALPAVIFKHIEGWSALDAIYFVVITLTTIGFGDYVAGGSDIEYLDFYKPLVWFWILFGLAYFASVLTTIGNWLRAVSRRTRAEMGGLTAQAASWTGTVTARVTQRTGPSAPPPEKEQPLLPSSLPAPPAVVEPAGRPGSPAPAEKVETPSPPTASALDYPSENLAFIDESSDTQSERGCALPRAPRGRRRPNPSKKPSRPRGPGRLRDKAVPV
The assay can be described thus: TEVC of chimera TREK-1/AAK M4-C. Conditions: Xenopus oocytes.

In another assay the target is T2, K2P2.1(TREK-1) (Mus musculus, UniProt P97438).
T2 sequence (P97438 1-411 isoform P97438-2): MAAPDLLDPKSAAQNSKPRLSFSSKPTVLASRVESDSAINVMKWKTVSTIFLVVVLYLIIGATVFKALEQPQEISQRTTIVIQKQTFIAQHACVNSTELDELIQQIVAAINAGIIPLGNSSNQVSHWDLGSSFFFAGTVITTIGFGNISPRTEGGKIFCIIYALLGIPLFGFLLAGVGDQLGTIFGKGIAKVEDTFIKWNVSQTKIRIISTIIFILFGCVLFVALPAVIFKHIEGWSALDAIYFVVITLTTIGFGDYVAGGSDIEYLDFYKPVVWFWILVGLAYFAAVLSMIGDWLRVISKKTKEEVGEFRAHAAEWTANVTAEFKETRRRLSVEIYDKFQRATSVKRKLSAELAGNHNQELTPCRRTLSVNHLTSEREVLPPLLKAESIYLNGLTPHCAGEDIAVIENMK
The assay can be described thus: TEVC of K2P2.1(TREK-1) in Xenopus oocytes. On the set-up: expressed in transfected cells; host or cells: Xenopus laevis oocytes injected with mRNA made from pGEMHE/pMO. The source says: Constructs for murine K2P channels, including K2P2.1(TREK-1) (Gene ID 16526), K2P10.1(TREK-2) (Gene ID 72258), K2P4.1(TRAAK) (Gene ID 16528), K2P5.1(TASK-2) (Gene ID 16529), K2P3.1(TASK-1) (Gene ID 16527), K2P9.1(TASK-3) (Gene ID 223604), and K2P18.1(TRESK) (Gene ID 332396) in pGEMHE/pMO, were used for Xenopus oocyte experiments as previously described.[10],[26] Murine K2P2.1(TREK-1) (Gene ID 16526) was expressed in HEK-293 cells using a pIRES-EGFP construct as previously described.[26] Murine K2P13.1(THIK-1) (Gene ID 217826) and K2P1.1(TWIK-1) (Gene ID 16525) were cloned into pGEMHE/pMO for use in Xenopus oocytes. Chimeras were designed using EMBOSS Needle pairwise sequence alignment tool[58] to match homologous helices in K2P2.1(TREK-1) and K2P4.1(TRAAK) and were assembled using the Gibson assembly method.[59] Chimera boundaries are Thr152 (TREK-1/AAK M2-C), Trp199 (TREK-1/AAK M3-C), Y272 (TREK-1/AAK M4-C), Thr114 (TRAAK/EK-1 M2-C), Trp161 (TRAAK/EK-1 M3-C), and Tyr234 K2P4.1(TRAAK). All sequences were verified using DNA sequencing.
Xenopus laevis oocytes were harvested in accordance with UCSF IACUC protocol AN129690 and digested in calcium-free ND-96 (96 mM NaCl, 2 mM KCl, 3.8 mM MgCl2) immediately following harvest, as previously described.[6],[10] Digested oocytes were maintained in standard ND96 (96 mM NaCl, 2 mM KCl, 1.8 mM CaCl2, 2 mM MgCl2) with antibiotics (100 units mL^–1 penicillin, 100 μg mL^–1 streptomycin, 50 μg mL^–1 gentimycin). Defolliculated stage V–VI oocytes were injected with 0.2–6.0 ng of mRNA in 50 nL, and currents were recorded 24–48 h after injection. mRNA was synthesized from plasmid DNA using mMessage mMachine Kit (T7 promoter, Ambion, Life Technologies) and purified using RNEasy Kit (Qiagen). Injected oocytes were impaled with two standard microelectrodes (0.2–1.0 MΩ) filled with 3 M KCl and subjected to constant perfusion of standard ND96 during recording. Currents were amplified using the GeneClamp 500B (MDS Analytical Technologies) amplifier controlled by the pClamp software (Molecular Devices). Data were digitized at 1 kHz using Digidata 1332A (MDS Analytical Technologies). For all experiments with small molecules, basal currents were evoked using 1 s long ramps from −150 to +50 mV under constant perfusion of ND96. Once stabilized basal currents were recorded, compounds were perfused at various concentrations in standard ND96 and currents were allowed to increase to stabilization before recording final current. Fold activation upon compound application is expressed as I/I0 (0 mV), derived from the current at 0 mV in the presence of compound divided by the basal current at 0 mV in standard ND96 without compound. Data were analyzed and plotted using Graphpad Prism Version 5 (GraphPad Software, San Diego California USA, www.graphpad.com). […] In the case of BL-1249-acid EC50 estimation, upper bound of I/I0 was set to 20 to account for the strong stimulation of BL-1249-acid.

Another assay has as its target T3, TRAAK/EK-1 M4-C (Mus musculus, UniProt O88454+P97438, F242V/L235V/N256D/S249A/T252S/T253M).
T3 construct: and Tyr234 K2P4.1(TRAAK); expressed in transfected cells; host or cells: Xenopus laevis oocytes, mRNA injected; chimera built by Gibson assembly
The assay can be described thus: TEVC of chimera TRAAK/EK-1 M4-C. The following applies: Xenopus oocytes.

In the next assay the target is T4, TRAAK/EK-1 M2-C (Mus musculus, UniProt O88454+P97438, A151S/D143N/F160Y/H141A/P165L/Q138H/R166H/S147A/S164V/V139S/V154I).
T4 construct: Thr114 (TRAAK/EK-1 M2-C); expressed in transfected cells; host or cells: Xenopus laevis oocytes, mRNA injected; chimera built by Gibson assembly
The assay can be described thus: TEVC of chimera TRAAK/EK-1 M2-C. The following applies: Xenopus oocytes.

T4 sequence (O88454+P97438 fused with the stated changes): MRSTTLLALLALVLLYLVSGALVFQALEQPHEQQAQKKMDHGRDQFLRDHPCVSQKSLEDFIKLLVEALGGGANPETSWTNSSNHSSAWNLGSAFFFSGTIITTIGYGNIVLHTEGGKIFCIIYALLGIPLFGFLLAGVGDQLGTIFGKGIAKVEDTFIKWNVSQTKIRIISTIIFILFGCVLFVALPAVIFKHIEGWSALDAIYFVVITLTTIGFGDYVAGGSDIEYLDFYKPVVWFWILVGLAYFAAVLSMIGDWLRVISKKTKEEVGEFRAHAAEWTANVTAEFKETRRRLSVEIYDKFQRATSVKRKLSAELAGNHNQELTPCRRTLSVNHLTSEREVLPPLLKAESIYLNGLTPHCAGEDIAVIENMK
T3 sequence (O88454+P97438 fused with the stated changes): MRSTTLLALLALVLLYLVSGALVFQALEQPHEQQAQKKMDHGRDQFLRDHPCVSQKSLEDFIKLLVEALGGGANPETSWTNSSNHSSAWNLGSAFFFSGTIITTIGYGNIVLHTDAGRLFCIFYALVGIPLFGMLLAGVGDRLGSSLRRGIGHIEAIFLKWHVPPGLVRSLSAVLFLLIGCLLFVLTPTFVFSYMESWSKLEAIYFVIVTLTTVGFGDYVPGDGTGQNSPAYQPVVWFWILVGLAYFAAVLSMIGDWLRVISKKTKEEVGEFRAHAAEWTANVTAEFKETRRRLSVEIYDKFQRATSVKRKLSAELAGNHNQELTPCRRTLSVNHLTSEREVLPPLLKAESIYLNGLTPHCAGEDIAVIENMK

With `c1ccc(-c2nnn[nH]2)c(Nc2cccc3c2CCCC3)c1` [BL-1249, (5,6,7,8-tetrahydro-naphthalen-1-yl)-[2-(1H-tetrazol-5-yl)-phenyl]-amine], the half-maximal effective concentration (EC50) on TREK-1/AAK M4-C was determined as 19 ± 3 µM; at K2P2.1(TREK-1) (extracellular application, fold activation I/I0 at 0 mV), 5.5 ± 1.2 µM; at TRAAK/EK-1 M4-C it was 45 ± 2 µM; at TRAAK/EK-1 M2-C it was 28 ± 5 µM. On K2P2.1(TREK-1) (extracellular application of 10 μM), the “K2P2.1(TREK-1) current response” value is listed as “clear activation responses”.

Regarding `CS(=O)(=O)Nc1ccc(C(=O)NCc2ccc(Cl)cc2Cl)cc1` [ML335], the EC50 at TREK-1/AAK M4-C was 2 ± 0.6 µM; on TRAAK/EK-1 M4-C it was > 100 µM; on TRAAK/EK-1 M2-C, 8 ± 1 µM. The “effect on K2P2.1(TREK-1) current (in words)” value on K2P2.1(TREK-1) (dose-response) is reported as “robustly responded”.
